# According to PubChem BioAssay (NCI):
#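 How tested: cells in 96-well plates exposed to compound for 48 hours at five concentrations. GI50 marks 50% less growth. At the TGI there is no net growth.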
# How the values were obtained:
# Experiment in all cases: NCI-60 cell line screen, 48 h
# 786-0 renal = system: 786-0 renal
# A498 renal = system: A498 renal
# A549 NSCLC = system: A549 NSCLC
# ACHN renal = system: ACHN renal
# BT-549 breast = system: BT-549 breast
# CAKI-1 renal = system: CAKI-1 renal
# CCRF-CEM leukemia = system: CCRF-CEM leukemia
# COLO 205 colon = system: COLO 205 colon
# DU-145 prostate = system: DU-145 prostate
# EKVX NSCLC = system: EKVX NSCLC
# HCC-2998 colon = system: HCC-2998 colon
# HCT-116 colon = system: HCT-116 colon
# HCT-15 colon = system: HCT-15 colon
# HL-60(TB) leukemia = system: HL-60(TB) leukemia
# HOP-62 NSCLC = system: HOP-62 NSCLC
# HOP-92 NSCLC = system: HOP-92 NSCLC
# HS 578T breast = system: HS 578T breast
# HT29 colon = system: HT29 colon
# IGROV1 ovarian = system: IGROV1 ovarian
# K-562 leukemia = system: K-562 leukemia
# KM12 colon = system: KM12 colon
# LOX IMVI melanoma = system: LOX IMVI melanoma
# M14 melanoma = system: M14 melanoma
# MALME-3M melanoma = system: MALME-3M melanoma
# MCF7 breast = system: MCF7 breast
# MDA-MB-231 breast = system: MDA-MB-231 breast
# MDA-MB-435 = system: MDA-MB-435
# MOLT-4 leukemia = system: MOLT-4 leukemia
# NCI-H226 lung = system: NCI-H226 lung
# NCI-H23 lung = system: NCI-H23 lung
# NCI-H460 lung = system: NCI-H460 lung
# NCI-H522 lung = system: NCI-H522 lung
# NCI/ADR-RES ovarian = system: NCI/ADR-RES ovarian
# OVCAR-3 ovarian = system: OVCAR-3 ovarian
# OVCAR-4 ovarian = system: OVCAR-4 ovarian
# OVCAR-5 ovarian = system: OVCAR-5 ovarian
# OVCAR-8 ovarian = system: OVCAR-8 ovarian
# PC-3 prostate = system: PC-3 prostate
# RPMI-8226 leukemia = system: RPMI-8226 leukemia
# RXF 393 renal = system: RXF 393 renal
# SF-268 CNS = system: SF-268 CNS
# SF-295 CNS = system: SF-295 CNS
# SF-539 CNS = system: SF-539 CNS
# SK-MEL-2 melanoma = system: SK-MEL-2 melanoma
# SK-MEL-28 melanoma = system: SK-MEL-28 melanoma
# SK-MEL-5 melanoma = system: SK-MEL-5 melanoma
# SK-OV-3 ovarian = system: SK-OV-3 ovarian
# SN12C renal = system: SN12C renal
# SNB-19 CNS = system: SNB-19 CNS
# SNB-75 CNS = system: SNB-75 CNS
# SR leukemia = system: SR leukemia
# SW-620 colon = system: SW-620 colon
# T-47D breast = system: T-47D breast
# TK-10 renal = system: TK-10 renal
# U251 CNS = system: U251 CNS
# UACC-257 melanoma = system: UACC-257 melanoma
# UACC-62 melanoma = system: UACC-62 melanoma
# UO-31 renal = system: UO-31 renal
smiles,measurement,setting,value
CCO/C=N/C1=C(C#N)C(c2ccc(Cl)cc2)c2sc3c(CC)cccc3c2O1 (stereo unspecified),GI50,786-0 renal,2.23 µM
same,TGI,786-0 renal,14 µM
same,GI50,A498 renal,0.416 µM
same,TGI,A498 renal,10.7 µM
same,GI50,A549 NSCLC,1.25 µM
same,TGI,A549 NSCLC,17.2 µM
same,GI50,ACHN renal,1.21 µM
same,TGI,ACHN renal,15.4 µM
same,GI50,BT-549 breast,2.64 µM
same,TGI,BT-549 breast,16.5 µM
same,GI50,CAKI-1 renal,0.703 µM
same,TGI,CAKI-1 renal,18 µM
same,GI50,CCRF-CEM leukemia,1.66 µM
same,TGI,CCRF-CEM leukemia,24.9 µM
same,GI50,COLO 205 colon,3.36 µM
same,TGI,COLO 205 colon,11.1 µM
same,GI50,DU-145 prostate,2.49 µM
same,TGI,DU-145 prostate,12.4 µM
same,GI50,EKVX NSCLC,2.11 µM
same,TGI,EKVX NSCLC,14.8 µM
same,GI50,HCC-2998 colon,1.65 µM
same,TGI,HCC-2998 colon,4.95 µM
same,GI50,HCT-116 colon,0.801 µM
same,TGI,HCT-116 colon,12.5 µM
same,GI50,HCT-15 colon,0.617 µM
same,TGI,HCT-15 colon,10.6 µM
same,GI50,HL-60(TB) leukemia,1.34 µM
same,TGI,HL-60(TB) leukemia,11.7 µM
same,GI50,HOP-62 NSCLC,4.78 µM
same,TGI,HOP-62 NSCLC,23.6 µM
same,GI50,HOP-92 NSCLC,1.53 µM
same,TGI,HOP-92 NSCLC,17.8 µM
same,GI50,HS 578T breast,1.85 µM
same,TGI,HS 578T breast,12.6 µM
same,GI50,HT29 colon,2.39 µM
same,TGI,HT29 colon,10.1 µM
same,GI50,IGROV1 ovarian,0.702 µM
same,TGI,IGROV1 ovarian,14.7 µM
same,GI50,K-562 leukemia,0.553 µM
same,TGI,K-562 leukemia,20.6 µM
same,GI50,KM12 colon,0.876 µM
same,TGI,KM12 colon,12.5 µM
same,GI50,LOX IMVI melanoma,1.45 µM
same,TGI,LOX IMVI melanoma,14.4 µM
same,GI50,M14 melanoma,1.21 µM
same,TGI,M14 melanoma,11.7 µM
same,GI50,MALME-3M melanoma,10.1 µM
same,TGI,MALME-3M melanoma,22.6 µM
same,GI50,MCF7 breast,0.475 µM
same,TGI,MCF7 breast,10.7 µM
same,GI50,MDA-MB-231 breast,3.96 µM
same,TGI,MDA-MB-231 breast,16.9 µM
same,GI50,MDA-MB-435,0.307 µM
same,TGI,MDA-MB-435,0.878 µM
same,GI50,MOLT-4 leukemia,3.02 µM
same,TGI,MOLT-4 leukemia,17 µM
same,GI50,NCI-H226 lung,5.94 µM
same,TGI,NCI-H226 lung,25.3 µM
same,GI50,NCI-H23 lung,2.56 µM
same,TGI,NCI-H23 lung,13.1 µM
same,GI50,NCI-H460 lung,1.74 µM
same,TGI,NCI-H460 lung,14.2 µM
same,GI50,NCI-H522 lung,0.433 µM
same,TGI,NCI-H522 lung,4.57 µM
same,GI50,NCI/ADR-RES ovarian,0.475 µM
same,TGI,NCI/ADR-RES ovarian,3.14 µM
same,GI50,OVCAR-3 ovarian,0.813 µM
same,TGI,OVCAR-3 ovarian,13.2 µM
same,GI50,OVCAR-4 ovarian,4.79 µM
same,TGI,OVCAR-4 ovarian,19.6 µM
same,GI50,OVCAR-5 ovarian,3.24 µM
same,TGI,OVCAR-5 ovarian,14.4 µM
same,GI50,OVCAR-8 ovarian,2.77 µM
same,TGI,OVCAR-8 ovarian,15.1 µM
same,GI50,PC-3 prostate,0.788 µM
same,TGI,PC-3 prostate,11.4 µM
same,GI50,RPMI-8226 leukemia,2.42 µM
same,TGI,RPMI-8226 leukemia,14.4 µM
same,GI50,RXF 393 renal,1.41 µM
same,TGI,RXF 393 renal,5.57 µM
same,GI50,SF-268 CNS,4.99 µM
same,TGI,SF-268 CNS,21.1 µM
same,GI50,SF-295 CNS,0.331 µM
same,TGI,SF-295 CNS,1.27 µM
same,GI50,SF-539 CNS,1.43 µM
same,TGI,SF-539 CNS,3.6 µM
same,GI50,SK-MEL-2 melanoma,1.65 µM
same,TGI,SK-MEL-2 melanoma,18.3 µM
same,GI50,SK-MEL-28 melanoma,4.04 µM
same,TGI,SK-MEL-28 melanoma,20.4 µM
same,GI50,SK-MEL-5 melanoma,4.19 µM
same,TGI,SK-MEL-5 melanoma,16.4 µM
same,GI50,SK-OV-3 ovarian,5.26 µM
same,TGI,SK-OV-3 ovarian,21 µM
same,GI50,SN12C renal,3.03 µM
same,TGI,SN12C renal,14.5 µM
same,GI50,SNB-19 CNS,1.9 µM
same,TGI,SNB-19 CNS,13.9 µM
same,GI50,SNB-75 CNS,0.206 µM
same,TGI,SNB-75 CNS,2.01 µM
same,GI50,SR leukemia,0.651 µM
same,TGI,SR leukemia,18.4 µM
same,GI50,SW-620 colon,0.71 µM
same,TGI,SW-620 colon,16.9 µM
same,GI50,T-47D breast,2.51 µM
same,TGI,T-47D breast,15.5 µM
same,GI50,TK-10 renal,7.79 µM
same,TGI,TK-10 renal,20.6 µM
same,GI50,U251 CNS,2.38 µM
same,TGI,U251 CNS,13.5 µM
same,GI50,UACC-257 melanoma,11.1 µM
same,TGI,UACC-257 melanoma,26.1 µM
same,GI50,UACC-62 melanoma,0.596 µM
same,TGI,UACC-62 melanoma,17.4 µM
same,GI50,UO-31 renal,2.2 µM
same,TGI,UO-31 renal,16 µM
